Experimental data reported in patent US20070010454A1, “Method for treating tumor cells resulting in minimal liver toxicity” (priority 2005, published 2007).

Columns and labels:
tyrosinase [1] = assay: UV-VIS spectroscopy of tyrosinase mediated metabolism of alkoxyphenols; format: biochemical; details: alkoxyphenol 100 µM, tyrosinase 20 U/mL; compared with the other alkoxyphenols
Description: UV-VIS spectroscopy of tyrosinase mediated metabolism of alkoxyphenols The spectra of a solution containing alkoxyphenol (100 µM) and tyrosinase (20 U/mL) were recorded in the absence and presence of GSH (200 µM) using a GBC UV-Visible spectral spectrophotometer (GC Scientific, Australia). The spectra of the mixture were obtained when GSH was added to the solution either before or after the addition of tyrosinase. The control spectrum was that of the respective alkoxyphenol solution (100 µM) in phosphate buffer [0.1 M (pH 7.4) containing DETAPAC (1 mM)].

[2] = tested on: rat liver microsomal P450; assay: Microsomal mediated GSH depletion assay (rat liver microsomes/NADPH/O2); format: in vitro ADME
Description: Adult male Sprague-Dawley rats, 250-300 g, were obtained from Charles River Laboratories, USA, fed ad libitum, were allowed to acclimatize for 1 week on clay chip bedding in a room with a 12 h light photocycle, an environmental temperature of 21-23° C. and 50-60% relative humidity.
The rats were anesthetized by sodium pentobarbital (60 mg/kg) before surgery in order to prepare the animal before liver removal. Hepatic microsomes were prepared by differential centrifugation as described previously (14). Briefly, the liver was removed and weighed in a beaker on ice. The liver was cut into pieces and washed by cold KCl (154 mM): Tris/HCl (50 mM, pH 7.4) buffer solution then suspended into 4 volumes of KCl:Tris/HCl buffer. The tissue was gently homogenized using an electrical homogenizer and subsequently by a handheld glass tissue grinder before centrifuging at 1935 g (Beckman Avanti J-251, Beckman Rotor-JA-25.5) at 4° C. for 15 mm to remove tissue and cell debris. The supernatant was centrifuged at 12,100 g at 4° C. for 15 min to remove subcellular organelles followed by centrifigation at 100,000 g (Beckman Optima LE-80K, Beckman Rotor-45 Ti) at 4° C. for 1 h. The supernatant was discarded and micorsomes were separated and suspended in 5 mL Tris/HCl buffer (100 mM, pH 7.4) containing 1 mM DETAPAC. The mixture was homogenized using a handheld glass tissue grinder after which an additional 15 mL Tris HCl buffer was added and the solution was aliquoted in 750 µL and stored at −70° C. for subsequent use. Microsomal protein content was determined by a modified Lowry method (15).
The amount of GSH conjugates formed were determined colorimetrically using Ellman's reagent 5,5′-dithiobis-(2-nitrobenzoic acid) (DTNB) (13). Incubation mixtures contained in a final volume of 1 mL phosphate buffer (0.1 M, pH 7.4, DETAPAC 1 mM), 2 mg/mL rat liver microsomes, 200 µM GSH, 1 mM NADPH, and 100 µM alkoxyphenols. The mixtures were gently mixed at 37° C. from which 250 µL aliquots were taken at 30, 60, and 90 min time-interval points into Eppendorf tubes containing 25 µL trichloroacetic acid (30% w/v). Following protein precipitation and centrifugation for 5 min, the GSH levels of a 100 µL aliquot of the supernatant was determined by the addition of 0.1 M Tris/HCl buffer, pH 8.94 (875 µL), and 2 mg/mL DTNB (25 µL). The reduced DTNB formed was determined at 412 nm on a GBC spectral spectrophotometer.

tyrosinase [3] = assay: Tyrosinase mediated GSH depletion assay; format: biochemical; details: for GSH depleted in tyrosinase/O2 metabolizing system, average equivalent: average over the four compounds named; for GSH depleted in tyrosinase/O2 metabolizing system / GSH depleted in tyrosinase/O2 metabolizing system (in words): alkoxyphenol 100 µM, GSH 200 µM
Description: Tyrosinase (10 µL; 2500 U/mL) was added to a mixture of alkoxyphenol (100 µM) and GSH (200 µM) in a final volume of 1 mL phosphate buffer (0.1 M, pH 7.4, DETAPAC 1 mM). The mixture was pre-incubated for 30, 90, and 180 min at 37° C. A 250 µL aliquot was added to trichloroacetic acid (25 µL; 30% w/v), vortexed and left at room temperature for 5 min. A 100 µL aliquot of the supernatant was then added to a mixture of Ellman's reagent 5,5′-dithiobis-(2-nitrobenzoic acid) DTNB (25 µL; 2 mg/mL) and Tris/HCl buffer (875 µL; 0.1 M, pH 8.94), and then vortexed. […] The standard curve for GSH measurement gave a regression coefficient of greater than 0.99 over the range of 5-200 µM GSH concentrations (data not shown).

B16-F0 melanoma cells = assay: MTT cytotoxicity assay in B16-F0 melanoma cell line; format: cell-based, mouse
Description: The mouse B16-F0 cell line was obtained from American Type Culture Collection, USA. A frozen B16-F0 cell vial was washed twice with DMEM media before culturing in 8 mL DMEM supplemented with fetal calf serum (FCS) (10%) and streptomycin/penicillin (100 U/mL) in a T-25 flask (17). All the cell culture processes were carried out in a type II vertical laminar air flow chamber. The B16-F0 cultures were kept at 37° C. under a 5% CO2 atmosphere in a TS Autoflow CO2 Water-Jacketed Incubator (NUAIRE, USA). The culture medium was changed when acidification was indicated by the pH indicator and when needed. To detach the cells from the flask, the media was first removed from the flask. The remaining media was then washed out using sterile phosphate buffered saline (PBS) (2-3 mL). Subsequently, Versene (2-5 mL) was added to the flask and the sample was incubated for 2-3 min in the incubator to provide time for cells to detach. The detached cells were rinsed with ˜10 mL of pre-warmed sterile PBS to dilute Versene. The mixture was transferred into a 50 mL tube. The flask was additionally rinsed with sterile PBS and the content was added to the rest of the cells collected. The cells were then spun down at 800 RPM (Beckman GPR Centrifuge, USA) for 3-5 min. The PBS-Versene mixture was aspirated off. Pelletted cells were then re-suspended in DMEM media (supplemented by FCS 10% and antibiotics 100 U/mL) followed by splitting the mixture into one T-75 flask containing 30 mL media (25% of the media was supplemented from the previous culture step as conditioning media).
To evaluate cytotoxicity, cells were obtained from exponentially growing 90-95% confluent cultures and seeded at 12,500 cells/well in 96-well plates. The cells were kept in 100 µL fresh DMEM media (supplemented by FCS 10% and antibiotics 100 U/mL) for 24 h to allow cell adhesion and environmental adaptation. Subsequently, the cells were treated with additional 150 µL DMEM (supplemented with FCS 10% and antibiotics 100 U/mL) containing various concentrations of alkoxyphenols for 1-4 days. At 24 h interval, the medium was removed and the wells were washed three times using DMEM media alone before adding 40 µL of 2 mg/mL yellow tetrazolium dye (3-(4,5-dimethylthiazolyl-2)-2,5-diphenyltetrazolium bromide) (MTT) (17). The plates were returned to the incubator for a period of 4 h. […] The plates were stored at room temperature in a dark place for an additional 2 h before reading them at 570 nm using XFluor Plate Reader (Tecan US, Inc, USA). […]
Lethal concentrations (LC) which can cause 10% and 50% of the cell death were calculated from the linear regression equation derived from graphing the viability of the cells at day 2 (on x axis) versus the concentration of the drug (on y axis).

isolated rat hepatocytes = details: reactive metabolite of 4-HA formed by liver P450s; cited from earlier work
melanoma = details: cited from earlier work

CC(C)(C)Oc1ccc(O)cc1 [4-tBP, 4-t-butoxyphenol]
fold lower rate of oxidation by tyrosinase/O2 metabolizing system (tyrosinase [1]): 20 fold | GSH depletion by microsomal P450/NADPH/O2, fold less than 4-HA ([2]; 100 µM concentration): 2.3 fold | glutathione depletion by microsomal P450 system (in words) ([2]; 100 µM concentration): lowest rate of GSH depletion | glutathione depletion by microsomal P450 system (in words) ([2]; 100 µM concentration, listed as 4-t-butoxyphenol): lowest amount of glutathione depletion | GSH depleted by rat liver microsomes/NADPH/O2 ([2]; 90 min incubation, alkoxyphenol 100 µM, 2 mg/mL microsomes, 200 µM GSH): 0.5 equivalents of GSH per mole | GSH depleted in tyrosinase/O2 metabolizing system, average equivalent (tyrosinase [3]; 90 min incubation): 0.15 molar per mole | fold less toxic than the toxic value calculated from Eq. 2 (QSTR) (B16-F0 melanoma cells; LC50 day 2, B16-F0): 3.6 fold

CCCCOc1ccc(O)cc1 [4-nBP]
GSH depleted in tyrosinase/O2 metabolizing system (tyrosinase [3]; 90 min incubation): 1.8 molecular equivalent of GSH per mole

CC(C)Oc1ccccc1O [2-iPP, 2-iso-propoxyphenol]
fold lower rate of oxidation by tyrosinase/O2 metabolizing system (tyrosinase [1]): 20 fold | GSH depleted in tyrosinase/O2 metabolizing system, average equivalent (tyrosinase [3]; 90 min incubation): 0.15 molar per mole | fold less toxic than the toxic value calculated from Eq. 2 (QSTR) (B16-F0 melanoma cells; LC50 day 2, B16-F0): 3.6 fold

O=C1C=CC(=O)C=C1 [p-quinone]
toxicity to isolated rat hepatocytes (in words) (isolated rat hepatocytes): highly toxic

CCC(C)Oc1ccc(O)cc1 (stereo not shown) [4-sBP]
GSH depleted in tyrosinase/O2 metabolizing system, average equivalent (tyrosinase [3]; 90 min incubation): 0.15 molar per mole

CC(C)Oc1ccc(O)cc1 [4-iPP]
GSH depleted in tyrosinase/O2 metabolizing system, average equivalent (tyrosinase [3]; 90 min incubation): 0.15 molar per mole

CCOc1ccc(O)cc1 [4-EP]
GSH depleted in tyrosinase/O2 metabolizing system (in words) (tyrosinase [3]; 90 min incubation): mole per mole basis

CCCCCCOc1ccc(O)cc1 [4-nHP, 4-n-hexyloxyphenol]
metabolism by liver P450 microsomal preparation (in words) [2]: minimal metabolism | glutathione depletion in microsomal preparations (in words) ([2]; at calculated LC10 and LC50 lethal concentrations for B16-F0): minimally depleting glutathione | GSH depleted in tyrosinase/O2 metabolizing system (tyrosinase [3]; 90 min incubation): 1.8 molecular equivalent of GSH per mole | toxicity towards B16-F0 cells (in words) (B16-F0 melanoma cells; MTT assay, 1-4 days): greatest toxicity

CC(C)COc1ccc(O)cc1 [4-iBP]
GSH depleted in tyrosinase/O2 metabolizing system (tyrosinase [3]; 90 min incubation): 1.8 molecular equivalent of GSH per mole

CCCOc1ccc(O)cc1 [4-nPP]
GSH depleted in tyrosinase/O2 metabolizing system (in words) (tyrosinase [3]; 90 min incubation): mole per mole basis

COc1ccc(O)cc1 [4-HA, 4-hydroxyanisole, reference compound]
clinical liver toxicity (in words) (melanoma; clinical trials terminated): serious liver damage occurred | clinical effect (in words) (melanoma; topical application and intra-arterial infusions into patients' legs): Depigmentation and tumor shrinkage | GSH depleted in tyrosinase/O2 metabolizing system (tyrosinase [3]; 30 min incubation): 1.8 molecular equivalent of GSH per mole | fold more toxic than the toxic value calculated from Eq. 2 (QSTR) (B16-F0 melanoma cells; LC50 day 2, B16-F0): 1.7 fold
